Laboratory results published in PubChem BioAssay AID2060893 (Molecular Pharmacology Branch, DTP, NCI, 2025).

System: K86415-001-R-J1-PDC complex spheroids, viability
Assay: Anticancer human tumor K86415-001-R-J1-PDC patient-derived lung adenocarcinoma cell line growth inhibition [RAS]
Conditions: for IC50: curve of first compound; for viability, T/C: stronger effect = lower value
Procedure, shortened: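 Agents were tested in combination matrices in half-log decrements from a top concentration at or near clinical Cmax (10 microM if undetermined). Targets were multi-cell spheroids of tumour lines plus HUVEC and MSC stromal cells.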

[1] = second compound 0.0316 µM, first compound 0.0316 µM
[2] = second compound 0.0316 µM, first compound 0.1 µM
[3] = second compound 0.0316 µM, first compound 0.316 µM
[4] = second compound 0.0316 µM, first compound 1 µM
[5] = second compound 0.0316 µM, first compound 3.16 µM
[6] = second compound 0.0316 µM, first compound 10 µM
[7] = second compound 0.1 µM, first compound 0.0316 µM
[8] = second compound 0.1 µM, first compound 0.1 µM
[9] = second compound 0.1 µM, first compound 0.316 µM
[10] = second compound 0.1 µM, first compound 1 µM
[11] = second compound 0.1 µM, first compound 3.16 µM
[12] = second compound 0.1 µM, first compound 10 µM
[13] = second compound 0.316 µM, first compound 0.0316 µM
[14] = second compound 0.316 µM, first compound 0.1 µM
[15] = second compound 0.316 µM, first compound 0.316 µM
[16] = second compound 0.316 µM, first compound 1 µM
[17] = second compound 0.316 µM, first compound 3.16 µM
[18] = second compound 0.316 µM, first compound 10 µM
[19] = second compound 1 µM, first compound 0.0316 µM
[20] = second compound 1 µM, first compound 0.1 µM
[21] = second compound 1 µM, first compound 0.316 µM
[22] = second compound 1 µM, first compound 1 µM
[23] = second compound 1 µM, first compound 3.16 µM
[24] = second compound 1 µM, first compound 10 µM
[25] = second compound 3.16 µM, first compound 0.0316 µM
[26] = second compound 3.16 µM, first compound 0.1 µM
[27] = second compound 3.16 µM, first compound 0.316 µM
[28] = second compound 3.16 µM, first compound 1 µM
[29] = second compound 3.16 µM, first compound 3.16 µM
[30] = second compound 3.16 µM, first compound 10 µM
[31] = second compound 10 µM, first compound 0.0316 µM
[32] = second compound 10 µM, first compound 0.1 µM
[33] = second compound 10 µM, first compound 0.316 µM
[34] = second compound 10 µM, first compound 1 µM
[35] = second compound 10 µM, first compound 3.16 µM
[36] = second compound 10 µM, first compound 10 µM
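Also: spheroids exposed to agents for seven days before readout.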

CC(=O)OC12COC1CC(O)C1(C)C(=O)C(O)C3=C(C)C(OC(=O)C(O)C(NC(=O)OC(C)(C)C)c4ccccc4)CC(O)(C(OC(=O)c4ccccc4)C21)C3(C)C (stereo unspecified) + C#Cc1c(F)ccc2cc(O)cc(-c3ncc4c(N5CC6CCC(C5)N6)nc(OCC56CCCN5CC(F)C6)nc4c3F)c12
IC50 (second compound 0.0316 µM): < 31.6 nM
IC50 (second compound 0.1 µM): < 31.6 nM
IC50 (second compound 0.316 µM): < 31.6 nM
IC50 (second compound 1 µM): < 31.6 nM
IC50 (second compound 3.16 µM): < 31.6 nM
IC50 (second compound 10 µM): < 31.6 nM
viability, T/C [1]: 29.3%
viability, T/C [2]: 30.7%
viability, T/C [3]: 32.6%
viability, T/C [4]: 30.9%
viability, T/C [5]: 37.5%
viability, T/C [6]: 35.7%
viability, T/C [7]: 30.8%
viability, T/C [8]: 34.4%
viability, T/C [9]: 28.6%
viability, T/C [10]: 32%
viability, T/C [11]: 26.8%
viability, T/C [12]: 37%
viability, T/C [13]: 32.2%
viability, T/C [14]: 29.9%
viability, T/C [15]: 27.4%
viability, T/C [16]: 28.9%
viability, T/C [17]: 29.2%
viability, T/C [18]: 28.8%
viability, T/C [19]: 34.2%
viability, T/C [20]: 33.9%
viability, T/C [21]: 28.7%
viability, T/C [22]: 32.6%
viability, T/C [23]: 25.9%
viability, T/C [24]: 26.7%
viability, T/C [25]: 23.9%
viability, T/C [26]: 26.8%
viability, T/C [27]: 27.1%
viability, T/C [28]: 26.5%
viability, T/C [29]: 29.4%
viability, T/C [30]: 24.5%
viability, T/C [31]: 20.1%
viability, T/C [32]: 19.1%
viability, T/C [33]: 19.5%
viability, T/C [34]: 19.3%
viability, T/C [35]: 18.2%
viability, T/C [36]: 15.3%

CC1(O)CCCC1n1c(=O)c(C(F)F)cc2cnc(NC3CCN(S(C)(=O)=O)CC3)nc21 (stereo unspecified) + CCn1c(-c2cc(N3CCN(C)CC3)cnc2C(C)OC)c2c3cc(ccc31)-c1csc(n1)CC(NC(=O)C1CC1C)C(=O)N1CCCC(N1)C(=O)OCC(C)(C)C2
IC50 (second compound 0.000949 µM): 31.6 nM
IC50 (second compound 0.003 µM): < 31.6 nM
IC50 (second compound 0.00949 µM): < 31.6 nM
IC50 (second compound 0.03 µM): < 31.6 nM
IC50 (second compound 0.0949 µM): < 31.6 nM
IC50 (second compound 0.3 µM): < 31.6 nM
viability, T/C (second compound 0.000949 µM, first compound 0.0316 µM): 41.9%
viability, T/C (second compound 0.000949 µM, first compound 0.1 µM): 36.9%
viability, T/C (second compound 0.000949 µM, first compound 0.316 µM): 36.7%
viability, T/C (second compound 0.000949 µM, first compound 1 µM): 47%
viability, T/C (second compound 0.000949 µM, first compound 3.16 µM): 57.5%
viability, T/C (second compound 0.000949 µM, first compound 10 µM): 4.99%
viability, T/C (second compound 0.003 µM, first compound 0.0316 µM): 18.4%
viability, T/C (second compound 0.003 µM, first compound 0.1 µM): 19.2%
viability, T/C (second compound 0.003 µM, first compound 0.316 µM): 20%
viability, T/C (second compound 0.003 µM, first compound 1 µM): 23.5%
viability, T/C (second compound 0.003 µM, first compound 3.16 µM): 43%
viability, T/C (second compound 0.003 µM, first compound 10 µM): 4.43%
viability, T/C (second compound 0.00949 µM, first compound 0.0316 µM): 10.9%
viability, T/C (second compound 0.00949 µM, first compound 0.1 µM): 8.83%
viability, T/C (second compound 0.00949 µM, first compound 0.316 µM): 10.7%
viability, T/C (second compound 0.00949 µM, first compound 1 µM): 11.5%
viability, T/C (second compound 0.00949 µM, first compound 3.16 µM): 20.2%
viability, T/C (second compound 0.00949 µM, first compound 10 µM): 5.31%
viability, T/C (second compound 0.03 µM, first compound 0.0316 µM): 6.62%
viability, T/C (second compound 0.03 µM, first compound 0.1 µM): 6.19%
viability, T/C (second compound 0.03 µM, first compound 0.316 µM): 6.48%
viability, T/C (second compound 0.03 µM, first compound 1 µM): 10.7%
viability, T/C (second compound 0.03 µM, first compound 3.16 µM): 12.3%
viability, T/C (second compound 0.03 µM, first compound 10 µM): 4.06%
viability, T/C (second compound 0.0949 µM, first compound 0.0316 µM): 4.05%
viability, T/C (second compound 0.0949 µM, first compound 0.1 µM): 4.63%
viability, T/C (second compound 0.0949 µM, first compound 0.316 µM): 4.78%
viability, T/C (second compound 0.0949 µM, first compound 1 µM): 5.15%
viability, T/C (second compound 0.0949 µM, first compound 3.16 µM): 6.85%
viability, T/C (second compound 0.0949 µM, first compound 10 µM): 5.2%
viability, T/C (second compound 0.3 µM, first compound 0.0316 µM): 3.61%
viability, T/C (second compound 0.3 µM, first compound 0.1 µM): 5.05%
viability, T/C (second compound 0.3 µM, first compound 0.316 µM): 4.72%
viability, T/C (second compound 0.3 µM, first compound 1 µM): 5.49%
viability, T/C (second compound 0.3 µM, first compound 3.16 µM): 7.45%
viability, T/C (second compound 0.3 µM, first compound 10 µM): 4.66%

CC1(O)CCCC1n1c(=O)c(C(F)F)cc2cnc(NC3CCN(S(C)(=O)=O)CC3)nc21 (stereo unspecified) + C#Cc1c(F)ccc2cc(O)cc(-c3ncc4c(N5CC6CCC(C5)N6)nc(OCC56CCCN5CC(F)C6)nc4c3F)c12
IC50 (second compound 0.0316 µM): 4560 nM
IC50 (second compound 0.1 µM): 4580 nM
IC50 (second compound 0.316 µM): 4300 nM
IC50 (second compound 1 µM): 4020 nM
IC50 (second compound 3.16 µM): < 31.6 nM
IC50 (second compound 10 µM): < 31.6 nM
viability, T/C [1]: 86.2%
viability, T/C [2]: 71.4%
viability, T/C [3]: 59%
viability, T/C [4]: 79.4%
viability, T/C [5]: 70%
viability, T/C [6]: 7.15%
viability, T/C [7]: 78.2%
viability, T/C [8]: 68.4%
viability, T/C [9]: 57.9%
viability, T/C [10]: 64.6%
viability, T/C [11]: 80.6%
viability, T/C [12]: 8.13%
viability, T/C [13]: 74.2%
viability, T/C [14]: 63.3%
viability, T/C [15]: 55%
viability, T/C [16]: 67.9%
viability, T/C [17]: 67.1%
viability, T/C [18]: 8.09%
viability, T/C [19]: 65.3%
viability, T/C [20]: 62.4%
viability, T/C [21]: 53.6%
viability, T/C [22]: 54.5%
viability, T/C [23]: 70.7%
viability, T/C [24]: 6.85%
viability, T/C [25]: 28.2%
viability, T/C [26]: 28.9%
viability, T/C [27]: 29%
viability, T/C [28]: 43.6%
viability, T/C [29]: 59.4%
viability, T/C [30]: 5.28%
viability, T/C [31]: 15.6%
viability, T/C [32]: 16.1%
viability, T/C [33]: 21.9%
viability, T/C [34]: 25.9%
viability, T/C [35]: 30.2%
viability, T/C [36]: 2.97%
